What all share (experiment): inhibition of tumour cell growth, NCI panel, 48 h
Test [1] concerns A498 renal.
In test [2] the test system is A549 NSCLC.
The test system of test [3] is HCC-2998 colon.
Test [4] has as its system HT29 colon.
In test [5] the test system is K-562 leukemia.
Test [6] concerns M14 melanoma.
The test system of test [7] is MOLT-4 leukemia.
The subject of test [8] is NCI-H23 lung.
The test system of test [9] is SF-295 CNS.
For test [10], the system named is SK-MEL-2 melanoma.
The subject of test [11] is SK-MEL-28 melanoma.
In test [12] the test system is SNB-19 CNS.
The test system of test [13] is EKVX NSCLC.
The test system of test [14] is HL-60(TB) leukemia.
The subject of test [15] is TK-10 renal.
In test [16] the test system is DU-145 prostate.
The test system of test [17] is MCF7 breast.
For test [18], the system named is MDA-MB-231 breast.
Test [19] concerns NCI/ADR-RES ovarian.
The subject of test [20] is MDA-MB-435.

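In this assay, cells in 96-well plates receive the compound at five concentrations for 48 hours. Endpoints are linearly interpolated between the surrounding concentrations. TGI: concentration producing complete growth inhibition.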

Take `O=C1C=C(Nc2ccccc2C(=O)CC(=O)C(=O)Nc2ccc(Cl)c(Cl)c2)c2ccccc2C1=O`: the TGI in test [1], in [2], in [3], in test [4], in [5] and in [6] was greater than 100 µM throughout. Moreover, the TGI in test [7] is greater than 100 µM; in [8], greater than 100 µM; in test [9], greater than 100 µM; in [10], greater than 100 µM; in [11], 37.4 µM; in test [12] it was greater than 100 µM.
Take `COc1ccc(/C(Cl)=C/c2ccc(Cl)c(Cl)c2)cc1`: the TGI was found to be 72.8 µM in test [1]; 83.6 µM in [2]; 61.8 µM in test [13]; 43.2 µM in test [3]; 44.9 µM in test [14]; 47.5 µM in test [4]. Also, the TGI in test [5] is greater than 100 µM; in test [6], greater than 100 µM; in test [7], 37 µM; in test [8], 63 µM; in test [9], 74.9 µM; in test [11], greater than 100 µM. The compound also came in with a TGI in [12] greater than 100 µM.
Turning to `CCOC(=O)c1cn2c([nH]c3ccccc32)c(C#N)c1=O`, the TGI in [1] was greater than 100 µM; in test [2] it was greater than 100 µM; in test [13] it was greater than 100 µM; in test [3], greater than 100 µM; in test [14] it was 47.1 µM; in test [4], greater than 100 µM. The TGI in [5], in test [6], in test [7], in test [8], in [9] and in test [10] was greater than 100 µM in each case. The TGI in test [11], in test [12] and in [15] was greater than 100 µM in each case.
Regarding `COC(=O)c1cc(C)n(NC(=O)OC(C)(C)C)c1C`, the TGI in test [1], in test [2], in test [13], in test [3], in [14] and in [4] was greater than 100 µM each time. Besides, the TGI in [5], in test [6], in [7], in test [8], in test [9] and in test [10] was greater than 100 µM in each case. The TGI in [11], in [12] and in [15] was greater than 100 µM throughout.
`C1=c2ccccc2=C2C(=C(c3ccccc3)C(c3ccccc3)=NN2c2ccccc2)S1`: the TGI in test [1], in test [2], in test [13], in [3], in [14] and in [4] was greater than 100 µM in each case. For the same compound, the TGI in test [5], in [6], in test [7], in test [8], in test [9] and in test [10] was greater than 100 µM in each case. Moreover, the TGI in test [11], in test [12] and in test [15] was greater than 100 µM each time.
On to `Cn1c(N)c(-c2c3ccccc3nc3ccccc23)c(=O)n(C)c1=O`, for which the TGI in test [1], in test [2], in [13], in [14], in [4] and in test [5] was greater than 100 µM each time. Besides, the TGI in test [6], in [7], in [8], in test [9], in test [10] and in [11] was greater than 100 µM each time. The compound further returned a TGI in test [15] greater than 100 µM.
In the case of `C[N+](C)(Cc1ccc(NC(=O)CCCC(=O)ON2C(=O)CCC2=O)cc1)c1ccccc1`, the TGI was greater than 100 µM in test [1]; 2.08 µM in test [2]; greater than 100 µM in [14]; greater than 100 µM in [4]; greater than 100 µM in test [5]; greater than 100 µM in test [6]. The TGI was 1.8 µM in test [7]; greater than 100 µM in [8]; greater than 100 µM in test [9]; greater than 100 µM in test [10]; less than 0.01 µM in [11]; greater than 100 µM in [12]. In test [15], the TGI was greater than 100 µM.
Turning to `COC1=CC(=O)c2ccccc2C1(C)C1=NC(C)(C)CO1` (stereo unspecified), the TGI in [2], in test [13], in test [14], in test [4], in test [5] and in test [6] was greater than 100 µM throughout. The TGI in [7], in [8], in test [9], in test [10], in test [11] and in [12] was greater than 100 µM throughout. In [15], the TGI was greater than 100 µM.
As to `O=S(Cc1cc2c(cc1Br)OCO2)c1ccccc1` (stereo unspecified), the TGI in test [1] was greater than 100 µM; in [2], greater than 100 µM; in test [13] it was greater than 100 µM; in test [3] it was greater than 100 µM; in test [14], 57.4 µM; in test [4] it was greater than 100 µM. Moreover, the TGI in test [5], in test [6], in test [7], in test [8], in test [9] and in [10] was greater than 100 µM in each case. In addition, the TGI in [11], in [12] and in test [15] was greater than 100 µM in each case.
For the compound `CC1=NN(c2ccccc2)C(=O)C1=C1SCCCS1`, the TGI in test [1] is 90.7 µM; in [2] it was greater than 100 µM; in test [13], 88.4 µM; in test [3], greater than 100 µM; in test [14], 41.9 µM; in test [4], greater than 100 µM. The TGI in test [5] is 47.6 µM; in test [6] it was greater than 100 µM; in test [7], 36.1 µM; in test [8] it was greater than 100 µM; in [9] it was 73.7 µM; in test [10], greater than 100 µM. Further, the TGI in [11] is greater than 100 µM; in [12], 84.7 µM; in test [15] it was greater than 100 µM.
On to `COCC12CC(CC1=O)C1C2ON2c3ccccc3C(=O)C12c1ccccc1` (stereo unspecified), for which the TGI in test [1], in test [2], in test [13], in [3], in test [14] and in test [4] was greater than 100 µM throughout. The TGI in test [5], in test [6], in test [7], in test [8], in test [9] and in test [11] was greater than 100 µM in each case. The TGI in test [12] was greater than 100 µM.
For the compound `COc1cc(C2C(Cl)C(=O)N2NC(=O)Cc2ccccc2)ccc1O` (stereo unspecified), the TGI in test [2] is greater than 100 µM; in test [13], greater than 100 µM; in test [3], greater than 100 µM; in test [14], 80.7 µM; in test [4] it was greater than 100 µM; in [5], greater than 100 µM. Further, the TGI in test [6], in test [7], in test [8], in [9], in [10] and in test [11] was greater than 100 µM each time. The TGI in test [12] and in test [15] was greater than 100 µM throughout.
`Cn1c2c(cc(-c3ccccc3)c1=O)COc1ccccc1-2`: the TGI is greater than 100 µM in test [1]; greater than 100 µM in test [2]; greater than 100 µM in [13]; greater than 100 µM in [3]; 56.1 µM in test [14]; 47.1 µM in [4]. The TGI in [5] was 53.2 µM; in test [6], 94.4 µM; in test [7], 47.2 µM; in test [8] it was greater than 100 µM; in [9] it was 74.9 µM; in test [10], 30.4 µM. The TGI in test [11] is 84.6 µM; in test [12] it was greater than 100 µM.
With `O=C(Nc1cc(Cl)c(Cl)cc1Cl)C(=O)C(C(=O)c1ccc2ccccc2c1)C1OC(=O)c2ccccc21` (stereo unspecified), the TGI in [1] was found to be 25.8 µM; in [2], 81.5 µM; in test [13], 36.6 µM; in test [14] it was 88.1 µM; in [4], 37.3 µM; in test [6], 50.7 µM. Also, the TGI in test [8] was 15.2 µM; in [9], 21 µM; in test [10], 33.8 µM; in [11], 22.1 µM; in [12], 33.2 µM.
For the compound `COc1ccc(C2S/C(=C\c3cccc(O)c3)C(=O)N2NC(=O)Cc2ccccc2)cc1` (stereo unspecified), the TGI in test [1], in [2], in test [14], in [4], in test [5] and in test [6] was greater than 100 µM in each case. For the same compound, the TGI in [7], in test [8], in test [9], in test [10] and in test [15] was greater than 100 µM throughout.
As to `Nc1ccc(C(=O)NN2C(=O)C(Cl)C2c2cccc([N+](=O)[O-])c2)cc1` (stereo unspecified), the TGI is 45.4 µM in test [1]; greater than 100 µM in [2]; 47.7 µM in [13]; 39.5 µM in test [3]; 41.4 µM in [14]; 37.9 µM in test [4]. The TGI in test [5] came to 47.5 µM; in test [6], 39.6 µM; in [7] it was 37.5 µM; in test [8], 34.5 µM; in test [9], 43.1 µM; in test [10] it was 35.7 µM. Further, the TGI in test [11] is 38.5 µM; in [12], 32.1 µM; in [15], 35.3 µM.
Consider `CCCOCN1COCN=C1NC#N`, for which the TGI in test [1], in test [2], in test [13], in test [3], in test [14] and in [4] was greater than 100 µM throughout. The TGI in test [5], in test [6], in test [7], in [8], in test [9] and in test [10] was greater than 100 µM in each case. Besides, the TGI in test [11], in test [12] and in [15] was greater than 100 µM each time.
`CCCCOc1ccc(S(=O)(=O)/N=C(\NN)Nc2ccc(Cl)cc2)cc1`: the TGI was greater than 100 µM in test [1]; 36.6 µM in test [2]; 31.1 µM in test [16]; greater than 100 µM in test [13]; greater than 100 µM in [14]; 48.9 µM in test [4]. For the same compound, the TGI is greater than 100 µM in test [5]; 56.9 µM in test [6]; greater than 100 µM in [17]; 46.3 µM in test [18]; greater than 100 µM in test [7]; greater than 100 µM in test [8]. For the same compound, the TGI was 76.3 µM in [19]; 67.7 µM in [9]; greater than 100 µM in test [10]; greater than 100 µM in test [11]; greater than 100 µM in test [12]; greater than 100 µM in [15].
Turning to `Cc1cc(C)c(NS(=O)c2cccc([N+](=O)[O-])c2)c(C)c1` (stereo unspecified), the TGI in test [1], in test [2], in [16], in [14], in test [4] and in test [5] was greater than 100 µM throughout. The TGI in test [6], in test [17], in test [20], in test [7], in test [8] and in test [19] was greater than 100 µM throughout. For the same compound, the TGI in test [9], in test [11], in test [12] and in test [15] was greater than 100 µM each time.

For the origin of these results see PubChem BioAssay (NCI).
